Read-outs that look alike come from different tables or passages of the source.
Tests used:
[1] = tested on: Rat asthma model; test: Rat asthma model, nucleated (inflammatory) cell count in bronchi alveolar lavage fluid (BALF); assay type: in vivo; settings: BALF total nucleated cells, model group 182.50 ± 24.52, blank group 85.50 ± 18.70
Description: Rat asthma model was established, and proceeded with blunt dissection of trachea following the last feeding of drug for trachea alveolar washing. Bronchi alveolar lavage fluid (BALF) was collected, and total number of nucleated cells were counted.

[2] = tested on: Rat PAH model; test: Monocrotaline incurred pulmonary hypertension in rats, right ventricular systolic pressure; assay type: in vivo; settings: 200 mg/Kg daily, 30th day, right cardiac catheterization, x ± s, model group 43.78 ± 2.14, normal group 21.08 ± 2.13
Experimental: Method: Rat PAH model was established, and normal saline was fed to contrast group with volume equivalent to that for injection. Drug for interference was fed 2 days after radiography. 200 mg/Kg per compound was fed on daily basis. Normal saline was used with equivalent volume for lavage to the contrast group and model group respectively. Right ventricular systolic pressure of rat was measured by means of Right cardiac catheterization at anesthesia state on the 30th day.

[3] = tested on: Isolated tracheal strip (trachea smooth muscle); test: Isolated tracheal strip relaxation (diastolic rate) after acetylcholine chloride contraction; settings: read-out: Relaxation rate %
Experimental: Method: Isolated tracheal strip was fabricated, and was placed in the in-vitro tracheal experiment device; 100 μL acetylcholine chloride was added following tension adjustment and balancing to make the trachea extract, and the tension of trachea was increased. Once the tension was increased to the maximum value, and became balanced, corresponding trial drug was fed to inhibit extraction of the trachea; isometric muscle tension variation curve was recorded, and diastolic rate of smooth muscle was calculated. Diastolic rate=(tension after radiography−tension after dosing)/(tension after radiography)*100%.

[4] = tested on: tracheal smooth muscle; settings: guinea pig, cited from earlier work
[5] = tested on: isolated atria; settings: guinea pig; cited from earlier work
[6] = 0.75 mmol/L, isolated tracheal strip contracted with acetylcholine chloride
[7] = 1.25 mmol/L, isolated tracheal strip contracted with acetylcholine chloride

SMILES	Inflammatory cell [1]	RVSP [2]	inhibition at 750 µM [3, 6] [%]	inhibition at 1250 µM [3, 7] [%]	inhibition at 750 µM [3] [%]	inhibition at 1250 µM [3] [%]	cAMP content in the tracheal smooth muscle [4]	air passage relaxation ([4]; in vivo experiment and experiment in vitro)	effect on isolated atria [5]
CCCCCCCCCCCCCC(=O)OC(C)(C)C1CC=C(C)CC1 (stereo not drawn) [A]	139.50 ± 31.24^Δ × 10^8/L	35.07 ± 2.81 mmHg	17.6 ± 2.89	16.6 ± 14.5	–	–	–	–	–
Cn1c(=O)c2[nH]cnc2n(C)c1=O [Aminophylline, reference compound]	–	–	43.7 ± 10.2	56.7 ± 9.26	–	–	–	–	–
CCCCCCCCCCCCCCCCCC(=O)OC(C)(C)C1CC=C(C)CC1 (stereo not drawn) [B]	134.50 ± 25.27^Δ × 10^8/L	36.08 ± 2.01 mmHg	15.4 ± 9.83	10.6 ± 13.8	–	–	–	–	–
CC1=CCC(C(C)(C)OC(=O)CN(C)CCO)CC1 (stereo not drawn) [C]	77.50 ± 68.81 × 10^8/L	22.33 ± 1.03^ΔΔ## mmHg	50.2 ± 7.3	76.8 ± 7.7	–	–	–	–	–
CC1=CCC(C(C)(C)OC(=O)CN2CCOCC2)CC1 (stereo not drawn) [D]	110.5 ± 16.21 × 10^8/L	32.04 ± 1.12^Δ mmHg	36.6 ± 13.8	59.4 ± 14.7	–	–	–	–	–
CC1=CCC(C(C)(C)OC(=O)CO[N+](=O)[O-])CC1 (stereo not drawn) [E]	139.50 ± 20.71^Δ × 10^8/L	35.53 ± 3.02 mmHg	–	–	17.1 ± 6.98	10.8 ± 4.46	–	–	–
CCN(CC)CC(=O)OC(C)(C)C1CC=C(C)CC1 (stereo not drawn) [F]	101.50 ± 14.68 × 10^8/L	23.35 ± 1.04^ΔΔ## mmHg	42.3 ± 10.4	46.7 ± 3.56	–	–	–	–	–
CC1=CCC(C(C)(C)OC(=O)CSCCO)CC1 (stereo not drawn) [G]	76.00 ± 18.15 × 10^8/L	21.08 ± 1.31^ΔΔ# mmHg	48.3 ± 9.36	81.1 ± 10.2	–	–	–	–	–
CC1=CCC(C(C)(C)OC(=O)CN2CCC(=O)CC2)CC1 (stereo not drawn) [H]	123.00 ± 17.23 × 10^8/L	30.33 ± 2.03^Δ mmHg	20.9 ± 7.55	43.8 ± 10.2	–	–	–	–	–
CC1=CCC(C(C)(C)OC(=O)CN2CCC(O)CC2)CC1 (stereo not drawn) [J]	99.50 ± 21.23 × 10^8/L	27.06 ± 1.17^Δ mmHg	35.2 ± 13.9	71.5 ± 15.4	–	–	–	–	–
CC1=CCC(C(C)(C)OC(=O)CN2CCCCC2)CC1 (stereo not drawn) [L]	110.50 ± 16.18 × 10^8/L	25.36 ± 1.17^ΔΔ# mmHg	42.5 ± 6.14	52.2 ± 6.98	–	–	–	–	–
CC1=CCC(C(C)(C)OC(=O)CN(CCO)CCO)CC1 (stereo not drawn) [M]	97.50 ± 13.11 × 10^8/L	33.36 ± 2.05^Δ mmHg	27.7 ± 2.08	61 ± 5.07	–	–	–	–	–
CC1CCC(C(C)(C)O)CC1 (stereo not drawn) [N]	140.00 ± 26.21^Δ × 10^8/L	32.56 ± 2.82^Δ mmHg	27.2 ± 14.1	41.3 ± 13.2	–	–	–	–	–
CC1=CCC(C(C)(C)O)CC1 (stereo not drawn) [α-T, α,α,4-Trimethylcyclohex-3-en-1-methanol, reference compound]	113.00 ± 21.27 × 10^8/L	33.03 ± 2.22^Δ mmHg	28.4 ± 16.1	38.4 ± 13.6	–	–	increase cAMP content	available for air passage relaxation	inhibiting effect
